These are literature values, as cited in patent publication US11109615B2, “Vitamin A composition” (NESTEC S.A., priority 2015, dated 2021).

For the data set the following is noted: ambient conditions.

As to `CC1=C(/C=C/C(C)=C/C=C/C(C)=C/C=C/C=C(C)/C=C/C=C(C)/C=C/C2=C(C)CCCC2(C)C)C(C)(C)CCC1` [β-carotene, All-trans-β-carotene], the maximum solubility is on record as 0.08 g/100 g oil.
